Assay results as given in patent US20240239848A1, “HOLOTHURIAN-DERIVED ACTIVE PEPTIDE WITH IMMUNE ACTIVITY, PREPARATION METHOD AND APPLICATION THEREOF” (BOHAI UNIVERSITY, priority 2023, published 2024).
No end group written: not given here.

Tests used:
Type in all cases: cell-based, mouse
[1] = system: macrophage RAW264.7; experiment: Survival rate of macrophages RAW264.7 (CCK-8 method); conditions: RAW264.7, synthetic peptide 50-200 μg/mL, 24 h
Procedure: Blank group: Macrophages RAW264.7 are inoculated into 96-well plates and cultured for 24 h.
Sample group: synthetic peptides with different concentrations (50-200 μg/mL) are used for treating for 24 h.
The CCK-8 method is used to measure the absorbance values of different components, and the survival rate of macrophage RAW264.7 is calculated according to the absorbance values.

[2] = system: macrophage RAW264.7 induced by LPS; experiment: NO release from macrophage RAW264.7 induced by LPS (NO kit)
Procedure: (2) Influence of Synthetic Peptide on NO Release from Macrophage RAW264.7 Induced by LPS
(§1) Blank group: macrophage RAW264.7 cells are inoculated into a 96-well plate and cultured for 24 h.
Induced injury group: after cell culture, cells in blank group are treated with 100 ng/ml LPS for 24 h, and then treated with synthetic peptides with different concentrations (50-200 μg/mL) for 24 h.
(§2) Negative control group: after cell culture in blank group, cells are treated with 100 ng/mL LPS for 24 h.
The NO release amount of different components is measured by NO kit. After 24 hours of treatment with synthetic peptides with different concentrations, the NO release amount of macrophage RAW264.7 induced by LPS is shown in FIG. 3.

[3] = system: IL-1β; experiment: IL-1β secretion of macrophage RAW264.7 induced by LPS (ELISA); conditions: LPS-induced RAW264.7, peptide 200 μg/mL
Procedure: (§3) (2) Influence of IIENAVQ on the secretion of cytokines (IL-1β, TNF-α) of macrophage RAW264.7 induced by LPS
as §1
(§4) Induced injury group: after the cells in the blank group are cultured, the cells are treated with 100 ng/mL LPS for 24 h, and then treated with different concentrations (50-200 μg/mL) of IIENAVQ for 24 h.
as §2
(§5) The cytokines of different components are determined by ELISA kit.
(§6) The final detection results of (1) and (2) are illustrated in FIG. 4A and FIG. 4B.

[4] = system: TNF-α; experiment: TNF-α secretion of macrophage RAW264.7 induced by LPS (ELISA); conditions: LPS-induced RAW264.7, peptide 200 μg/mL
Procedure: as §3, §1, §4, §2, §5, §6

Substance: IIENAVQ [IIENAVQ]
- cell survival rate [1]: 116.88%
- release of NO from macrophages RAW264.7 induced by LPS, compared with LPS-negative control group ([2]; 100 ng/mL LPS 24 h, then peptide 50-200 μg/mL 24 h): significantly reduces
- final concentration of NO ([2]; LPS-induced RAW264.7, peptide 200 μg/mL): 27.99 ± 0.33 µmol/L
- inhibition rate of IL-1β secretion [3]: 51.54%
- secretion of cytokine IL-1β [3]: 28.73 ± 1.12 pg/mL
- inhibition rate of TNF-α secretion [4]: 60.24%
- secretion of cytokine TNF-α [4]: 70.78 ± 5.55 pg/mL
